Reference: ChEMBL document CHEMBL1135258, “Substrate spectrum of tyrocidine thioesterase probed with randomized peptide N-acetylcysteamine thioesters” (Bioorg Med Chem Lett, 2002)
Where a SMILES comes first, the peptide text is derived from it. [ ]: non-standard residue; d: D form. The star is where a group is joined. SCH2CH2NHAc = CC(=O)NCCS*; Orn = NCCC[C@H](N)C(=O)O

Key:
[1] = target: T1, Thioesterase GrsT homolog tycF (Brevibacillus brevis) (UniProt O30412); test: Catalytic efficiency (Kcat/Km) was determined; set-up: unit not given here
T1 sequence (whole entry): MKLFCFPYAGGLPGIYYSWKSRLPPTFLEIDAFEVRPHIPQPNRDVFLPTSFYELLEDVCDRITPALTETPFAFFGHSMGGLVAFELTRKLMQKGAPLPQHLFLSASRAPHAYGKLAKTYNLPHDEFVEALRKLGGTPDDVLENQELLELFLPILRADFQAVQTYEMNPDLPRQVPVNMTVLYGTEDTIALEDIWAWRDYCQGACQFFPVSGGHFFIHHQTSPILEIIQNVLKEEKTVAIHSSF

[2] = target: T1, Thioesterase GrsT homolog tycF (Brevibacillus brevis); test: Apparent kinetic constant (Kcat) for tyrocidine thioesterase amplified from Bacillus brevis (ATCC8185)

Ratio [1] | k cat [2] [s⁻¹] | SMILES
0.22 | 0.233 | CC(=O)NCCSC(=O)[C@H](CC(C)C)NC(=O)[C@H](CCCN)NC(=O)[C@H](CCC(N)=O)NC(=O)[C@H](Cc1ccc(O)cc1)NC(=O)[C@H](CCC(N)=O)NC(=O)[C@H](CC(N)=O)NC(=O)[C@@H](Cc1ccccc1)NC(=O)[C@H](Cc1ccccc1)NC(=O)[C@@H]1CCCN1C(=O)[C@H](N)Cc1ccccc1
0.33 | 0.183 | CC[C@H](C)[C@H](NC(=O)[C@H](Cc1ccccc1)NC(=O)[C@@H]1CCCN1C(=O)[C@H](N)Cc1ccccc1)C(=O)N[C@@H](CC(N)=O)C(=O)N[C@@H](CCC(N)=O)C(=O)N[C@@H](Cc1ccc(O)cc1)C(=O)N[C@H](C(=O)N[C@@H](CCCN)C(=O)N[C@@H](CC(C)C)C(=O)SCCNC(C)=O)C(C)C
0.26 | 0.135 | CC(=O)NCCSC(=O)[C@H](CC(C)C)NC(=O)[C@H](CCCN)NC(=O)[C@@H](NC(=O)[C@H](Cc1ccc(O)cc1)NC(=O)[C@H](CCC(N)=O)NC(=O)[C@H](CC(N)=O)NC(=O)[C@@H](NC(=O)[C@H](Cc1ccccc1)NC(=O)[C@@H]1CCCN1C(=O)[C@H](N)Cc1ccccc1)[C@@H](C)O)C(C)C
0.17 | 0.183 | CC(=O)NCCSC(=O)[C@H](CC(C)C)NC(=O)[C@H](CCCN)NC(=O)[C@@H](NC(=O)[C@H](Cc1ccc(O)cc1)NC(=O)[C@H](CCC(N)=O)NC(=O)[C@H](CC(N)=O)NC(=O)[C@H](Cc1ccc(O)cc1)NC(=O)[C@H](Cc1ccccc1)NC(=O)[C@@H]1CCCN1C(=O)[C@H](N)Cc1ccccc1)C(C)C
0.22 | 0.2 | CC(=O)NCCSC(=O)[C@H](CC(C)C)NC(=O)[C@H](CCCN)NC(=O)[C@H](CC(N)=O)NC(=O)[C@H](Cc1ccc(O)cc1)NC(=O)[C@H](CCC(N)=O)NC(=O)[C@H](CC(N)=O)NC(=O)[C@@H](Cc1ccccc1)NC(=O)[C@H](Cc1ccccc1)NC(=O)[C@@H]1CCCN1C(=O)[C@H](N)Cc1ccccc1
0.058 | 0.233 | CC(=O)NCCSC(=O)[C@H](CC(C)C)NC(=O)[C@H](CCCN)NC(=O)[C@@H](NC(=O)[C@H](Cc1ccc(O)cc1)NC(=O)[C@H](CCC(N)=O)NC(=O)[C@H](CC(N)=O)NC(=O)[C@H](CC(=O)O)NC(=O)[C@H](Cc1ccccc1)NC(=O)[C@@H]1CCCN1C(=O)[C@H](N)Cc1ccccc1)C(C)C
0.36 | 0.133 | CC(=O)NCCSC(=O)[C@H](CC(C)C)NC(=O)[C@H](CCCN)NC(=O)[C@@H](NC(=O)[C@H](Cc1ccc(O)cc1)NC(=O)[C@H](CCC(N)=O)NC(=O)[C@H](CC(N)=O)NC(=O)CNC(=O)[C@H](Cc1ccccc1)NC(=O)[C@@H]1CCCN1C(=O)[C@H](N)Cc1ccccc1)C(C)C
0.57 | 0.11 | CC(=O)NCCSC(=O)[C@H](CC(C)C)NC(=O)[C@H](CCCN)NC(=O)[C@@H](NC(=O)[C@H](Cc1ccc(O)cc1)NC(=O)[C@H](CCC(N)=O)NC(=O)[C@H](CC(N)=O)NC(=O)[C@H](CCC(=O)O)NC(=O)[C@H](Cc1ccccc1)NC(=O)[C@@H]1CCCN1C(=O)[C@H](N)Cc1ccccc1)C(C)C

The remaining lines, values behind:

SMILES | Ratio [1] | k cat [2] [s⁻¹]
CC(=O)NCCSC(=O)[C@H](CC(C)C)NC(=O)[C@H](CCCN)NC(=O)[C@@H](NC(=O)[C@H](Cc1ccc(O)cc1)NC(=O)[C@H](CCC(N)=O)NC(=O)[C@H](CC(N)=O)NC(=O)[C@@H](Cc1ccccc1)NC(=O)[C@H](Cc1ccccc1)NC(=O)[C@H](CC(N)=O)NC(=O)[C@H](N)Cc1ccccc1)C(C)C | 0.084 | 0.117
CC(=O)NCCSC(=O)[C@H](CC(C)C)NC(=O)[C@H](CCCN)NC(=O)[C@@H](NC(=O)[C@H](Cc1ccc(O)cc1)NC(=O)[C@H](CCC(N)=O)NC(=O)[C@H](CC(N)=O)NC(=O)[C@H](CC(C)C)NC(=O)[C@H](Cc1ccccc1)NC(=O)[C@@H]1CCCN1C(=O)[C@H](N)Cc1ccccc1)C(C)C | 0.28 | 0.138
CSCC[C@H](NC(=O)[C@H](Cc1ccccc1)NC(=O)[C@@H]1CCCN1C(=O)[C@H](N)Cc1ccccc1)C(=O)N[C@@H](CC(N)=O)C(=O)N[C@@H](CCC(N)=O)C(=O)N[C@@H](Cc1ccc(O)cc1)C(=O)N[C@H](C(=O)N[C@@H](CCCN)C(=O)N[C@@H](CC(C)C)C(=O)SCCNC(C)=O)C(C)C | 0.8 | 0.267
CC(=O)NCCSC(=O)[C@H](CC(C)C)NC(=O)[C@H](CCCN)NC(=O)[C@@H](NC(=O)[C@H](Cc1ccc(O)cc1)NC(=O)[C@H](CCC(N)=O)NC(=O)[C@H](CC(N)=O)NC(=O)[C@H](CS)NC(=O)[C@H](Cc1ccccc1)NC(=O)[C@@H]1CCCN1C(=O)[C@H](N)Cc1ccccc1)C(C)C | 0.25 | 0.11
CC(=O)NCCSC(=O)[C@H](CC(C)C)NC(=O)[C@H](CCCN)NC(=O)[C@@H](NC(=O)[C@H](Cc1ccc(O)cc1)NC(=O)[C@H](CCC(N)=O)NC(=O)[C@@H](NC(=O)[C@@H](Cc1ccccc1)NC(=O)[C@H](Cc1ccccc1)NC(=O)[C@@H]1CCCN1C(=O)[C@H](N)Cc1ccccc1)C(C)C)C(C)C | 0.29 | 0.12
CC(=O)NCCSC(=O)[C@H](CC(C)C)NC(=O)[C@H](CCCN)NC(=O)[C@@H](NC(=O)[C@H](Cc1ccc(O)cc1)NC(=O)[C@H](CCC(N)=O)NC(=O)[C@H](CC(N)=O)NC(=O)[C@@H](Cc1ccccc1)NC(=O)[C@H](Cc1ccccc1)NC(=O)[C@@H]1CCCN1C(=O)[C@H](N)Cc1ccccc1)C(C)C (stereo in doubt; form 2) | 2.65 | 0.55
CC(=O)NCCSC(=O)[C@H](CC(C)C)NC(=O)[C@H](CCCN)NC(=O)[C@@H](NC(=O)[C@H](Cc1ccc(O)cc1)NC(=O)[C@H](CCC(N)=O)NC(=O)[C@H](CC(C)C)NC(=O)[C@@H](Cc1ccccc1)NC(=O)[C@H](Cc1ccccc1)NC(=O)[C@@H]1CCCN1C(=O)[C@H](N)Cc1ccccc1)C(C)C | 0.23 | 0.167
CC(=O)NCCSC(=O)[C@H](CC(C)C)NC(=O)[C@H](CCCN)NC(=O)[C@@H](NC(=O)[C@H](Cc1ccc(O)cc1)NC(=O)[C@H](CCC(N)=O)NC(=O)[C@H](CC(N)=O)NC(=O)[C@H](Cc1ccccc1)NC(=O)[C@H](Cc1ccccc1)NC(=O)[C@@H]1CCCN1C(=O)[C@H](N)Cc1ccccc1)C(C)C | 1.3 | 0.105
CC(=O)NCCSC(=O)[C@H](CC(C)C)NC(=O)[C@H](CCCN)NC(=O)[C@@H](NC(=O)[C@H](Cc1ccc(O)cc1)NC(=O)[C@H](CCC(N)=O)NC(=O)[C@H](CC(N)=O)NC(=O)[C@H](CO)NC(=O)[C@H](Cc1ccccc1)NC(=O)[C@@H]1CCCN1C(=O)[C@H](N)Cc1ccccc1)C(C)C | 0.57 | 0.13
CC(=O)NCCSC(=O)[C@H](CC(C)C)NC(=O)[C@H](CCCN)NC(=O)[C@@H](NC(=O)[C@H](Cc1ccc(O)cc1)NC(=O)[C@H](CCC(N)=O)NC(=O)[C@H](CC(N)=O)NC(=O)[C@@H](Cc1ccccc1)NC(=O)[C@H](Cc1ccccc1)NC(=O)[C@H](C)NC(=O)[C@H](N)Cc1ccccc1)C(C)C (H-[dF]AF[dF]NQYV[Orn]L-SCH2CH2NHAc) | 0.23 | 0.117
CC(=O)NCCSC(=O)[C@H](CC(C)C)NC(=O)[C@H](CCCN)NC(=O)[C@@H](NC(=O)[C@H](Cc1ccc(O)cc1)NC(=O)[C@H](CCC(N)=O)NC(=O)[C@H](CC(N)=O)NC(=O)[C@H](CCCN=C(N)N)NC(=O)[C@H](Cc1ccccc1)NC(=O)[C@@H]1CCCN1C(=O)[C@H](N)Cc1ccccc1)C(C)C | 0.51 | 0.2
CC(=O)NCCSC(=O)[C@H](CC(C)C)NC(=O)[C@H](CCCN)NC(=O)[C@@H](NC(=O)[C@H](Cc1ccc(O)cc1)NC(=O)[C@H](CCC(N)=O)NC(=O)[C@H](CC(N)=O)NC(=O)[C@H](C)NC(=O)[C@H](Cc1ccccc1)NC(=O)[C@@H]1CCCN1C(=O)[C@H](N)Cc1ccccc1)C(C)C | 0.6 | 0.183
CC(=O)NCCSC(=O)[C@H](CC(C)C)NC(=O)[C@H](CCCN)NC(=O)[C@@H](NC(=O)[C@H](Cc1ccc(O)cc1)NC(=O)[C@H](CC(N)=O)NC(=O)[C@H](CC(N)=O)NC(=O)[C@@H](Cc1ccccc1)NC(=O)[C@H](Cc1ccccc1)NC(=O)[C@@H]1CCCN1C(=O)[C@H](N)Cc1ccccc1)C(C)C | 0.72 | 1.33
CC(=O)NCCSC(=O)[C@H](CC(C)C)NC(=O)[C@H](CCCN)NC(=O)[C@@H](NC(=O)[C@H](Cc1ccc(O)cc1)NC(=O)[C@H](CC(C)C)NC(=O)[C@H](CC(N)=O)NC(=O)[C@@H](Cc1ccccc1)NC(=O)[C@H](Cc1ccccc1)NC(=O)[C@@H]1CCCN1C(=O)[C@H](N)Cc1ccccc1)C(C)C | 0.32 | 0.717
CC[C@@H](C)[C@H](NC(=O)[C@H](CC(N)=O)NC(=O)[C@@H](Cc1ccccc1)NC(=O)[C@H](Cc1ccccc1)NC(=O)[C@@H]1CCCN1C(=O)[C@H](N)Cc1ccccc1)C(=O)N[C@@H](Cc1ccc(O)cc1)C(=O)N[C@H](C(=O)N[C@@H](CCCN)C(=O)N[C@@H](CC(C)C)C(=O)SCCNC(C)=O)C(C)C | 0.09 | 0.123
CC(=O)NCCSC(=O)[C@H](CC(C)C)NC(=O)[C@H](CCCN)NC(=O)[C@@H](NC(=O)[C@H](CC(N)=O)NC(=O)[C@H](CCC(N)=O)NC(=O)[C@H](CC(N)=O)NC(=O)[C@@H](Cc1ccccc1)NC(=O)[C@H](Cc1ccccc1)NC(=O)[C@@H]1CCCN1C(=O)[C@H](N)Cc1ccccc1)C(C)C | 2.63 | 0.333
CC(=O)NCCSC(=O)[C@H](CC(C)C)NC(=O)[C@H](CCCN)NC(=O)[C@@H](NC(=O)[C@H](Cc1ccc(O)cc1)NC(=O)[C@H](CCC(N)=O)NC(=O)[C@H](CC(N)=O)NC(=O)[C@@H](Cc1ccccc1)NC(=O)[C@H](Cc1ccccc1)NC(=O)[C@H](CC(=O)O)NC(=O)[C@H](N)Cc1ccccc1)C(C)C | 0.11 | 0.167
CC(=O)NCCSC(=O)[C@H](CC(C)C)NC(=O)[C@H](CCCN)NC(=O)[C@@H](NC(=O)[C@H](Cc1ccc(O)cc1)NC(=O)[C@H](CCC(N)=O)NC(=O)[C@H](CC(N)=O)NC(=O)[C@H](Cc1c[nH]cn1)NC(=O)[C@H](Cc1ccccc1)NC(=O)[C@@H]1CCCN1C(=O)[C@H](N)Cc1ccccc1)C(C)C | 0.15 | 0.2
